# Measured values from patent US20130034496A1, “POSITRON EMISSION TOMOGRAPHY TRACER” (UNIVERSITY OF IOWA RESEARCH FOUNDATION, priority 2011, published 2013).
# Read-outs that look alike come from different tables or passages of the source.
# Tests used:
# normal cells = experiment: Washout of label from cells / retention; assay type: cell-based, human
# Description: (§1) Washout of label from cells—After labeling cells grown in four plates as described before, one culture plate was processed and total incorporation was measure by liquid scintillation counter (LSC). This uptake was regarded as 100%. From the remaining three culture plates, medium was removed, cells were washed twice with cold PBS and then normal growth medium (5 mL) was added at 37° for 30 min. The radiotracer released in the medium after 30 min was counted by LSC in triplicate, and cells were replenished with fresh 5 mL medium for next 30 min washing. The release of radiotracer was followed up to 120 min. Measurement of cell growth rate-The cells were seeded at a density of 4×10^4 cells/cm^2 in each of four 6-cm (20 cm^2) plates containing 5 mL medium and placed in incubator maintained at the conditions described above. Once the cells were in log-phase (48 h post plating), two plates were processed to count the total cells. The average number of cells from these plates was regarded as pl. After next 24 h, the remaining two plates were processed, and the total cells were counted again (p2). The doubling time was then calculated by using formula
# (§2) To examine the release of radioactivity from these cells, the ^14C-MTHF-loaded cells (after 2 hours uptake) were placed in fresh complete medium containing an excess of unlabeled folate at 37° C. The medium was replaced after every 30 min and the radiotracer released in the medium was measured by LSC. […] In case of cancerous cell lines, the release of the radiotracer was not more than 20%. After 30 min, the release of the radioactivity in the medium was slow and reached to the background value after two successive washings. After washing, the label retained in each cell line was determined and plotted in FIG. 6.
# cancerous cell lines [1] = experiment: Washout of label from cells / retention; assay type: cell-based, human
# Description: as §1, §2
# MIAPaCa tumor = experiment: Animal studies with ^14C-MTHF, distribution of radioactivity; assay type: in vivo; details: nude mice with MIAPaCa tumor; after one hour
# cells [2] = experiment: Cell cycle analysis, aphidicolin-treated cells; assay type: cell-based; details: cells treated with aphidicolin
# Description: (§3) Cell cycle analysis—Cells in log phase at the same confluency used for uptake experiments or growth inhibited cells by aphidicolin treatment were harvested using trypsin and washed twice with cold PBS. The cells were suspended as 1×10^6/ml density in PBS and fixed with 70% ethanol at −20° C. The DNA content of the cells was stained with 1 mL of staining buffer containing propidium iodide (5 μg/ml), RNAse A (1 mg/ml), glucose (1 mg/ml) in PBS. The stained cells were filtered through 70 μm nylon strainer and then analyzed for DNA content on FASCan flow-cytometer (Becton Dickinson) using Flo-Jo software.
# (§4) Cell cycle vs. MTHF uptake. Biosynthesis of DNA and its precursor bases increases during S-phase of the cell cycle. […] Unsynchronized cells, as used for labeling, were alcohol-fixed and the DNA stained with propidium iodide (PI). DNA content can be used as a proxy for determining cell cycle stage. The DNA content was then analyzed by FACSCAN flow cytometer and data were processed by using Facscaliber software. […] Alternatively, when the cells were treated with aphidicolin, an inhibitor of DNA polymerase-α, the proliferation index is reduced up to 4-fold. […] In another experiment, we treated cells with a chemotherapeutic agent (methotrexate) for 24 h and then incubated with ^14C-MTHF for 1 h and observed a 90-95% decline in uptake relative to cells not treated with methotrexate.
# MCF-10A [3] = experiment: Cell cycle analysis (propidium iodide, flow cytometry); assay type: cell-based, human; details: aphidicolin-arrested cells
# Description: as §3, §4
# HT-29 [4] = experiment: as above; assay type: cell-based, human; details: aphidicolin-arrested cells
# Description: as §3, §4
# FHC [5] = experiment: as above; assay type: cell-based, human; details: aphidicolin-arrested cells
# Description: as §3, §4
# MCF-7 [6] = experiment: as above; assay type: cell-based, human; details: aphidicolin-arrested cells
# Description: as §3, §4
# HMEC [7] = experiment: as above; assay type: cell-based, human; details: aphidicolin-arrested cells
# Description: as §3, §4
# MDA-MB231 [8] = experiment: as above; assay type: cell-based, human; details: aphidicolin-arrested cells
# Description: as §3, §4
# hTERT-HME1 [9] = experiment: as above; assay type: cell-based, human; details: aphidicolin-arrested cells
# Description: as §3, §4
# [10] = system: MIAPaCa, PANC1, H292, A549, SQ20B, Cal 27 and Fadu; experiment: Uptake and retention in cancer cell lines (Example 3); assay type: cell-based
# Description: Additional studies were performed as described above using the following cell lines:
# Pancreatic cancer - MIAPaCa and PANC1
# Head and Neck cancer—SQ20B, Cal 27 and Fadu
# cells [11] = experiment: ^14C-MTHF uptake after methotrexate treatment; assay type: cell-based; details: methotrexate 24 h, then ^14C-MTHF 1 h
# MCF-7 [12] = system: MCF-7
# FHC [13] = system: FHC
# MCF-10A [14] = system: MCF-10A
# HMEC [15] = system: HMEC
# MDA-MB231 [16] = system: MDA-MB231
# cancerous cell lines [17] = system: cancerous cell lines
# HT-29 [18] = system: HT-29
# [19] = Description: Stability of MTHF in culture medium—Folate-free RPMI 1640 (Invitrogen), fortified with 10% Fetal bovine serum (FBS, Sigma, qualified) (1 mL) in an eppendorf tube (1.5 mL) was spiked with MTHF (10 nM-100 μM) containing ˜0.05 μCi (˜1×10^5 DPM) of ^14C-MTHF as a radiotracer, and incubated under normal culture conditions (see below) for 0, 5, 30, 60, and 120 min. […] The mixture was incubated at 30° C. for 15 min and then filtered through 10K MWCO filter to remove protein. A 100 μl filtrate was analyzed by HPLC to determine the amount of dTMP formed from MTHF. A zorbax column (4.6 mm×15 cm) was eluted with a gradient of 2% to 5% methanol in 100 mM potassium phosphate, pH 6 over 2 min. The isocratic elution at this composition was conducted for 3 min and then changed linearly to 50% methanol in next 5 min. The system was held at this composition for next 5 min, and then increased up to 95% methanol to clean the column. Under these conditions, dUMP was eluted at 3.2 min, dTMP eluted at 5.8 min and MTHF/DHF eluted at 16 min. Identification and quantitation of dTMP was accomplished by comparing the retention time and area under peak of the standard solutions of dTMP.
# Stability of MTHF in culture medium—The stability of MTHF might limit its pharmaceutical use. […] The inventors therefore measured the stability of MTHF in culture medium. Concentrations of MTHF ranging from 10 nM to 100 μM, containing a fixed amount of radiotracer (C-14) were incubated in culture medium, under the conditions used for cell incorporation experiments. MTHF remaining in the medium at different time points was measured by quantitatively converting dUMP +^14C-MTHF to ^14C-dTMP by the ecTSase-catalyzed reaction. The amount of ^14C-dTMP formed was then analyzed by HPLC connected with radioactive flow detector (FIG. 2). Data were fitted to a single exponential decay. The analytical assay in which ^14C-MTHF is quantitatively converted to ^14C-dTMP was developed, tested, and used in many of our kinetic isotope effect measurements while studying TSase.
# hTERT-HME1 [20] = system: hTERT-HME1
# [21] = first 30 min incubation in fresh medium after 2 hours uptake
# [22] = normal growing cells, 20 μM MTHF with ^14C tracer
molecule,measurement,setting,value
"Nc1nc2c(c(=O)[nH]1)N1[14CH2]N(c3ccc(C(=O)N[C@@H](CCC(=O)O)C(=O)O)cc3)C[C@H]1CN2 [^14C-MTHF, [11-^14C]—(R)—N^5,N^10-methylene-5,6,7,8-tetrahydrofolate]",release of radiotracer,normal cells; [21],> 50%
same,label retained after washing (FIG. 6),"normal cells; non-cancer counterparts, successive 30 min washes, 2 h","retained a much lower, near-background amount of label"
same,label retained after washing (FIG. 6),"cancerous cell lines [1]; MDA-MB231, MCF7, hTERT, HT29, successive 30 min washes, 2 h",retained the highest amount of tracer
same,release of radiotracer,cancerous cell lines [1]; [21],not more than 20%
same,distribution of radioactivity/cell,MIAPaCa tumor,most of the radioactivity/cell was in the tumor and kidney
C[C@@]1(CO)[C@H](O)CC[C@@]2(C)[C@H]1CC[C@H]1C[C@@H]3C[C@@]12CC[C@]3(O)CO [aphidicolin],reduction of proliferation index,cells [2],up to 4 fold
same,Proliferation index (S + G2M),MCF-10A [3],3%
same,Proliferation index (S + G2M),HT-29 [4],6%
same,Proliferation index (S + G2M),FHC [5],3%
same,Proliferation index (S + G2M),MCF-7 [6],5%
same,Proliferation index (S + G2M),HMEC [7],4%
same,Proliferation index (S + G2M),MDA-MB231 [8],6%
same,Proliferation index (S + G2M),hTERT-HME1 [9],6%
"CN(Cc1cnc2nc(N)nc(N)c2n1)c1ccc(C(=O)N[C@@H](CCC(=O)O)C(=O)O)cc1 [methotrexate, reference compound]",effect of methotrexate on tracer uptake,[10]; small dose of MTX,uptake enhancement
same,decline in ^14C-MTHF uptake relative to untreated cells,cells [11],90-95%
"(R)—N^5,N^10-methylene-5,6,7,8-tetrahydrofolate [MTHF]",MTHF uptake,MCF-7 [12]; aphidicolin-arrested cells,4.92 ×10^−3/10^6 cells
same,MTHF uptake,MCF-7 [12]; [22],80.0 ×10^−3/10^6 cells
same,uptake in FHC cells (FIG. 4),FHC [13]; 20 μM MTHF,not higher than background
same,MTHF uptake,FHC [13]; aphidicolin-arrested cells,0.54 ×10^−3/10^6 cells
same,MTHF uptake,FHC [13]; [22],0.94 ×10^−3/10^6 cells
same,MTHF uptake,MCF-10A [14]; aphidicolin-arrested cells,2.34 ×10^−3/10^6 cells
same,MTHF uptake,MCF-10A [14]; [22],7.79 ×10^−3/10^6 cells
same,MTHF uptake,HMEC [15]; aphidicolin-arrested cells,1.23 ×10^−3/10^6 cells
same,MTHF uptake,HMEC [15]; [22],5.98 ×10^−3/10^6 cells
same,MTHF uptake,MDA-MB231 [16]; aphidicolin-arrested cells,3.45 ×10^−3/10^6 cells
same,MTHF uptake,MDA-MB231 [16]; [22],81.3 ×10^−3/10^6 cells
same,"label uptake, cancerous versus non-cancerous control cell lines","cancerous cell lines [17]; HEMC-hTERT, MCF7 and MDA-MB231 versus HMEC, MCF10A, 20 μM MTHF",more than 3 fold
same,time at which uptake of label reached a maximum level,"cancerous cell lines [17]; cancerous cell lines, steady state",60 min
same,uptake and retention of the radioactivity,"[10]; pancreatic, lung, head and neck cancer cell lines",good uptake and retention
same,MTHF uptake,HT-29 [18]; aphidicolin-arrested cells,3.82 ×10^−3/10^6 cells
same,"uptake, HT29 versus normal FHC cells","HT-29 [18]; colon cancer HT29 versus FHC, 20 μM MTHF",at least 30 times
same,MTHF uptake,HT-29 [18]; [22],48.9 ×10^−3/10^6 cells
same,rate of decomposition kdec,[19]; 10 nM MTHF in culture medium,0.00121 s⁻¹
same,half-life,[19]; 20 μM MTHF in culture medium,1.3 h
same,rate of decomposition kdec,[19]; 100 μM MTHF in culture medium,3.23e-05 s⁻¹
same,stability of MTHF (time),[19]; 100 μM MTHF in culture medium,up to 330 min
same,MTHF uptake,hTERT-HME1 [20]; aphidicolin-arrested cells,5.74 ×10^−3/10^6 cells
same,MTHF uptake,hTERT-HME1 [20]; [22],67.3 ×10^−3/10^6 cells
